{
  "source": "patent US20050197350A1",
  "about": "“Novel quinoline, tetrahydroquinazoline, and pyrimidine derivatives and methods of treatment related to the use thereof” (TAISHO PHARMACEUTICAL CO., LTD., priority 2003, published 2005)",
  "data": [
    {"system": "MCH receptors", "assay": "MCH receptor activity class (method not given)", "conditions": "MCH receptor; class by percent of control at 10^-7 M or IC50", "values": [
      {"smiles": "CN(C)c1nc(N[C@H]2CC[C@@H](NC(=S)NCC(c3ccccc3)c3ccccc3)CC2)nc2c1CCCC2", "note": "[compound 2030]", "class": "2 (Class 2: The value of percent of control at 10^−7 M was from 40% to 60% or the value of IC′50 was from 50 nM to 200 nM.)"},
      {"smiles": "CN(C)c1nc(N[C@H]2CC[C@@H](NC(=S)Nc3c(Cl)c(Cl)cc(Cl)c3Cl)CC2)nc2c1CCCC2", "note": "[compound 2031, N-(cis-4-{[4-(dimethylamino)-5,6,7,8-tetrahydroquinazolin-2-yl]amino}cyelohexyl)-N′-(2,3,5,6-tetrachlorophenyl)thiourea]", "class": "3 (Class 3 The value of percent of control at 10^−7 M was more than 60% or the value of IC50 was more than 200 nM.)"},
      {"smiles": "CN(C)c1nc(N[C@H]2CC[C@@H](NC(=S)NCc3ccc(Cl)cc3Cl)CC2)nc2c1CCCC2", "note": "[compound 2032]", "class": "3 (Class 3 The value of percent of control at 10^−7 M was more than 60% or the value of IC50 was more than 200 nM.)"},
      {"smiles": "CN(C)c1nc(N[C@H]2CC[C@@H](NC(=S)Nc3cc(Br)ccc3Br)CC2)nc2c1CCCC2", "note": "[compound 2033]", "class": "3 (Class 3 The value of percent of control at 10^−7 M was more than 60% or the value of IC50 was more than 200 nM.)"},
      {"smiles": "COc1ccc(OC)c(CCNC(=S)N[C@H]2CC[C@@H](Nc3nc4c(c(N(C)C)n3)CCCC4)CC2)c1", "note": "[compound 2034]", "class": "3 (Class 3 The value of percent of control at 10^−7 M was more than 60% or the value of IC50 was more than 200 nM.)"},
      {"smiles": "CN(C)c1nc(N[C@H]2CC[C@@H](NC(=S)Nc3cc([N+](=O)[O-])ccc3Cl)CC2)nc2c1CCCC2", "note": "[compound 2035]", "class": "3 (Class 3 The value of percent of control at 10^−7 M was more than 60% or the value of IC50 was more than 200 nM.)"},
      {"smiles": "CN(C)c1nc(N[C@H]2CC[C@@H](NC(=S)Nc3ccccc3C#N)CC2)nc2c1CCCC2", "note": "[compound 2036]", "class": "3 (Class 3 The value of percent of control at 10^−7 M was more than 60% or the value of IC50 was more than 200 nM.)"},
      {"smiles": "CN(C)c1nc(N[C@H]2CC[C@@H](NC(=S)NCc3ccccc3F)CC2)nc2c1CCCC2", "note": "[compound 2037]", "class": "3 (Class 3 The value of percent of control at 10^−7 M was more than 60% or the value of IC50 was more than 200 nM.)"},
      {"smiles": "CN(C)c1nc(N[C@H]2CC[C@@H](NC(=S)NC(=O)c3ccco3)CC2)nc2c1CCCC2", "note": "[compound 2038]", "class": "3 (Class 3 The value of percent of control at 10^−7 M was more than 60% or the value of IC50 was more than 200 nM.)"},
      {"smiles": "COc1ccc([N+](=O)[O-])cc1NC(=S)N[C@H]1CC[C@@H](Nc2nc3c(c(N(C)C)n2)CCCC3)CC1", "note": "[compound 2039]", "class": "3 (Class 3 The value of percent of control at 10^−7 M was more than 60% or the value of IC50 was more than 200 nM.)"},
      {"smiles": "Cc1ccccc1CNC(=S)N[C@H]1CC[C@@H](Nc2nc3c(c(N(C)C)n2)CCCC3)CC1", "note": "[compound 2040]", "class": "3 (Class 3 The value of percent of control at 10^−7 M was more than 60% or the value of IC50 was more than 200 nM.)"},
      {"smiles": "COc1ccc(CNC(=S)N[C@H]2CC[C@@H](Nc3nc4c(c(N(C)C)n3)CCCC4)CC2)cc1OC", "note": "[compound 2041]", "class": "3 (Class 3 The value of percent of control at 10^−7 M was more than 60% or the value of IC50 was more than 200 nM.)"},
      {"smiles": "CCc1cccc(NC(=S)N[C@H]2CC[C@@H](Nc3nc4c(c(N(C)C)n3)CCCC4)CC2)c1", "note": "[compound 2042]", "class": "3 (Class 3 The value of percent of control at 10^−7 M was more than 60% or the value of IC50 was more than 200 nM.)"},
      {"smiles": "CN(C)c1nc(N[C@H]2CC[C@@H](NC(=S)NCc3cccc(F)c3)CC2)nc2c1CCCC2", "note": "[compound 2043]", "class": "3 (Class 3 The value of percent of control at 10^−7 M was more than 60% or the value of IC50 was more than 200 nM.)"},
      {"smiles": "COc1cccc(CNC(=S)N[C@H]2CC[C@@H](Nc3nc4c(c(N(C)C)n3)CCCC4)CC2)c1", "note": "[compound 2044]", "class": "3 (Class 3 The value of percent of control at 10^−7 M was more than 60% or the value of IC50 was more than 200 nM.)"},
      {"smiles": "Cc1cccc(CNC(=S)N[C@H]2CC[C@@H](Nc3nc4c(c(N(C)C)n3)CCCC4)CC2)c1", "note": "[compound 2045]", "class": "3 (Class 3 The value of percent of control at 10^−7 M was more than 60% or the value of IC50 was more than 200 nM.)"},
      {"smiles": "CN(C)c1nc(N[C@H]2CC[C@@H](NC(=S)Nc3ccc(Br)c(Cl)c3)CC2)nc2c1CCCC2", "note": "[compound 2046]", "class": "3 (Class 3 The value of percent of control at 10^−7 M was more than 60% or the value of IC50 was more than 200 nM.)"},
      {"smiles": "Cc1cc(NC(=S)N[C@H]2CC[C@@H](Nc3nc4c(c(N(C)C)n3)CCCC4)CC2)ccc1Br", "note": "[compound 2047]", "class": "3 (Class 3 The value of percent of control at 10^−7 M was more than 60% or the value of IC50 was more than 200 nM.)"},
      {"smiles": "CCCCCCCCCCc1ccc(NC(=S)N[C@H]2CC[C@@H](Nc3nc4c(c(N(C)C)n3)CCCC4)CC2)cc1", "note": "[compound 2048]", "class": "3 (Class 3 The value of percent of control at 10^−7 M was more than 60% or the value of IC50 was more than 200 nM.)"},
      {"smiles": "CN(C)c1nc(N[C@H]2CC[C@@H](NC(=S)Nc3ccc(Oc4ccc([N+](=O)[O-])cc4)cc3)CC2)nc2c1CCCC2", "note": "[compound 2049]", "class": "3 (Class 3 The value of percent of control at 10^−7 M was more than 60% or the value of IC50 was more than 200 nM.)"},
      {"smiles": "CN(C)c1nc(N[C@H]2CC[C@@H](NC(=S)Nc3ccc(Sc4ccc([N+](=O)[O-])cc4)cc3)CC2)nc2c1CCCC2", "note": "[compound 2050]", "class": "3 (Class 3 The value of percent of control at 10^−7 M was more than 60% or the value of IC50 was more than 200 nM.)"},
      {"smiles": "CN(C)c1nc(N[C@H]2CC[C@@H](NC(=S)Nc3ccc(S(N)(=O)=O)cc3)CC2)nc2c1CCCC2", "note": "[compound 2051]", "class": "3 (Class 3 The value of percent of control at 10^−7 M was more than 60% or the value of IC50 was more than 200 nM.)"},
      {"smiles": "Cc1ccc(CCNC(=S)N[C@H]2CC[C@@H](Nc3nc4c(c(N(C)C)n3)CCCC4)CC2)cc1", "note": "[compound 2052]", "class": "3 (Class 3 The value of percent of control at 10^−7 M was more than 60% or the value of IC50 was more than 200 nM.)"},
      {"smiles": "CN(C)c1nc(N[C@H]2CC[C@@H](NC(=S)Nc3ccc(Oc4ccccc4)cc3)CC2)nc2c1CCCC2", "note": "[compound 2053]", "class": "3 (Class 3 The value of percent of control at 10^−7 M was more than 60% or the value of IC50 was more than 200 nM.)"},
      {"smiles": "CN(C)c1nc(N[C@H]2CC[C@@H](NC(=S)Nc3ccc4c(c3)CCC4)CC2)nc2c1CCCC2", "note": "[compound 2054]", "class": "3 (Class 3 The value of percent of control at 10^−7 M was more than 60% or the value of IC50 was more than 200 nM.)"},
      {"smiles": "CN(C)c1nc(N[C@H]2CC[C@@H](NC(=S)NC3CCCCCC3)CC2)nc2c1CCCC2", "note": "[compound 2055]", "class": "3 (Class 3 The value of percent of control at 10^−7 M was more than 60% or the value of IC50 was more than 200 nM.)"},
      {"smiles": "C#CCNC(=S)N[C@H]1CC[C@@H](Nc2nc3c(c(N(C)C)n2)CCCC3)CC1", "note": "[compound 2056]", "class": "3 (Class 3 The value of percent of control at 10^−7 M was more than 60% or the value of IC50 was more than 200 nM.)"},
      {"smiles": "CN(C)c1nc(N[C@H]2CC[C@@H](NC(=S)Nc3ccc(S(=O)(=O)N4CCCCC4)cc3)CC2)nc2c1CCCC2", "note": "[compound 2057]", "class": "3 (Class 3 The value of percent of control at 10^−7 M was more than 60% or the value of IC50 was more than 200 nM.)"},
      {"smiles": "CN(C)c1nc(N[C@H]2CC[C@@H](NC(=S)NCCC3=CCCCC3)CC2)nc2c1CCCC2", "note": "[compound 2058]", "class": "3 (Class 3 The value of percent of control at 10^−7 M was more than 60% or the value of IC50 was more than 200 nM.)"},
      {"smiles": "Cc1ccc(C)c(NC(=S)N[C@H]2CC[C@@H](Nc3nc4c(c(N(C)C)n3)CCCC4)CC2)c1", "note": "[compound 2059]", "class": "3 (Class 3 The value of percent of control at 10^−7 M was more than 60% or the value of IC50 was more than 200 nM.)"},
      {"smiles": "CC(C)c1ccc(NC(=S)N[C@H]2CC[C@@H](Nc3nc4c(c(N(C)C)n3)CCCC4)CC2)c(Br)c1", "note": "[compound 2060]", "class": "3 (Class 3 The value of percent of control at 10^−7 M was more than 60% or the value of IC50 was more than 200 nM.)"},
      {"smiles": "CN(C)c1nc(N[C@H]2CC[C@@H](NC(=S)Nc3cc(F)ccc3Br)CC2)nc2c1CCCC2", "note": "[compound 2061]", "class": "3 (Class 3 The value of percent of control at 10^−7 M was more than 60% or the value of IC50 was more than 200 nM.)"},
      {"smiles": "COc1ccccc1CNC(=S)N[C@H]1CC[C@@H](Nc2nc3c(c(N(C)C)n2)CCCC3)CC1", "note": "[compound 2062]", "class": "3 (Class 3 The value of percent of control at 10^−7 M was more than 60% or the value of IC50 was more than 200 nM.)"},
      {"smiles": "Cc1ccc(NC(=S)N[C@H]2CC[C@@H](Nc3nc4c(c(N(C)C)n3)CCCC4)CC2)cc1C", "note": "[compound 2063]", "class": "3 (Class 3 The value of percent of control at 10^−7 M was more than 60% or the value of IC50 was more than 200 nM.)"},
      {"smiles": "CN(C)c1nc(N[C@H]2CC[C@@H](NC(=S)NCCCCc3ccccc3)CC2)nc2c1CCCC2", "note": "[compound 2064]", "class": "3 (Class 3 The value of percent of control at 10^−7 M was more than 60% or the value of IC50 was more than 200 nM.)"},
      {"smiles": "CN(C)c1nc(N[C@H]2CC[C@@H](NC(=S)Nc3ccc(C(C)(C)C)cc3)CC2)nc2c1CCCC2", "note": "[compound 2065]", "class": "3 (Class 3 The value of percent of control at 10^−7 M was more than 60% or the value of IC50 was more than 200 nM.)"},
      {"smiles": "CN(C)c1nc(N[C@H]2CC[C@@H](NC(=S)Nc3cc(Cl)ccc3F)CC2)nc2c1CCCC2", "note": "[compound 2066]", "class": "3 (Class 3 The value of percent of control at 10^−7 M was more than 60% or the value of IC50 was more than 200 nM.)"},
      {"smiles": "CN(C)c1nc(N[C@H]2CC[C@@H](NC(=S)NCC3CC3)CC2)nc2c1CCCC2", "note": "[compound 2068]", "class": "3 (Class 3 The value of percent of control at 10^−7 M was more than 60% or the value of IC50 was more than 200 nM.)"},
      {"smiles": "CCOC(=O)c1c(NC(=S)N[C@H]2CC[C@@H](Nc3nc4c(c(N(C)C)n3)CCCC4)CC2)sc2c1CCCC2", "note": "[compound 2069]", "class": "3 (Class 3 The value of percent of control at 10^−7 M was more than 60% or the value of IC50 was more than 200 nM.)"},
      {"smiles": "CN(C)c1nc(N[C@H]2CC[C@@H](NC(=S)Nc3ccc(F)cc3Br)CC2)nc2c1CCCC2", "note": "[compound 2070]", "class": "3 (Class 3 The value of percent of control at 10^−7 M was more than 60% or the value of IC50 was more than 200 nM.)"},
      {"smiles": "CN(C)c1nc(N[C@H]2CC[C@@H](NC(=S)Nc3ccc(F)c(Cl)c3)CC2)nc2c1CCCC2", "note": "[compound 2071]", "class": "3 (Class 3 The value of percent of control at 10^−7 M was more than 60% or the value of IC50 was more than 200 nM.)"}
    ]}
  ]
}
